Test [1] concerns the target Krueppel-like factor 5 (Homo sapiens) (UniProt Q13887). The test can be described thus: change in KLF5 protein levels, late-stage follow-up, counter-screen for KLF5 inhibitor project, western blot, chemiluminescence, SW620 colorectal cells (AID 588661). Conditions: SW620 cells, KLF5 protein western blot, 24 h; at 10 µM; stronger effect = higher value.
Test [2] has as its system SW620 cells, KLF5 protein western blot, 24 h. Described as above. The following applies: measured here: KLF5 protein fold change vs DMSO; at 10 µM.

Active and inactive are the calls of the source.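 The calls were made as follows: active = KLF5 protein level in colon cancer cells lowered or raised by 30% or more versus solvent-only cells; inactive = the rest.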

Krueppel-like factor 5 (Homo sapiens), sequence (Q13887 whole entry, looked up): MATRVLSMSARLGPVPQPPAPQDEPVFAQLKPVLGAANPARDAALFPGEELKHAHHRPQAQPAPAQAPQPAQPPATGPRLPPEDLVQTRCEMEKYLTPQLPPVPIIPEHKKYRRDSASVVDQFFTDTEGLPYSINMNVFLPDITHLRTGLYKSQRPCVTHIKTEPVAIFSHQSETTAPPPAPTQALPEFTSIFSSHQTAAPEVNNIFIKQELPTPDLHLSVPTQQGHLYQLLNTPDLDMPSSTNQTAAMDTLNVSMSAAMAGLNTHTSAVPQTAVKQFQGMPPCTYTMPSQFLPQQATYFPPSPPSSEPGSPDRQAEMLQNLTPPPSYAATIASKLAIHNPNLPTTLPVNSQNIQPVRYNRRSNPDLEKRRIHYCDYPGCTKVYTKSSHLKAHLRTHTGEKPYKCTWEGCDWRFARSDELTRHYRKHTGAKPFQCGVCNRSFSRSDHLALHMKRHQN

By inhibition is commonly meant the drop in the measured response relative to a control, in per cent. On to `CN(C(=O)COC(=O)/C=C/c1cccc([N+](=O)[O-])c1)C1CCS(=O)(=O)C1` (configuration not stated), for which the inhibition in test [1] was 7.48% (inactive). Further, the signed fold change vs DMSO (negative = decrease) in test [2] was -1.08.

The values are drawn from PubChem BioAssay AID588661 (The Scripps Research Institute Molecular Screening Center, 2011).
